Source: PubChem BioAssay AID2060905 (Molecular Pharmacology Branch, DTP, NCI, 2025)

System: 282377-053-R-J1-PDC complex spheroid viability
Test: Anticancer human tumor 282377-053-R-J1-PDC patient-derived colon adenocarcinoma cell line growth inhibition [RAS]
Details: for IC50: curve of first compound; for viability, T/C: stronger effect = lower value; active = viability on the fitted dose curve at most 10% of control; inactive = the rest
Excerpt: RAS pathway inhibitors in Combinations in Complex Spheroids
A high-throughput screen of multi-cell type tumor spheroids was designed to identify active combinations of RAS pathway inhibitors and targeted small molecules. Complex spheroids include a stromal component modeled by human endothelial cells (HUVEC) and fibroblasts modeled by human mesenchymal stem cells (MSCs). The concentration ranges selected for each drug and investigational agent were based upon clinically achievable concentrations if the clinical Cmax of the agent was known.
Compounds. The drugs and investigational agents: abemaciclib (NSC768073), cobimetinib (NSC768068), divarasib (GDC6063, NSC841802), docetaxel (NSC628503), GDC-1971 (RLY-1971, NSC841576), gemcitabine (NSC613327), inavolisib (NSC800729), ipatasertib (NSC767898), KB-0742 (NSC834161), MRTX-1133 (NSC836407), osimertinib (NSC779217), RMC-4630 (NSC839698), RMC-6236 (NSC851965), RMC-6291 (NSC852671), Ro-3306 (NSC812927), sapanisertib (NSC764658), SN-38 (NSC673596), staurosporine (NSC755774), SY5609 (NSC837396), and tovorafenib (DAY101, NSC766906), were obtained from the National Cancer Institute (NCI) Developmental Therapeutics Program Chemical Repository. The FDA-approved anticancer drug set is available from the NCI Developmental Therapeutics Program. […] The stock solutions were prepared in dimethyl sulfoxide (DMSO, Sigma-Aldrich, St. Louis, MO, cat. D2650) at 800-fold the tested concentration and stored at -70 degrees C prior to their use. All drugs and investigational agents were tested over a range starting from a high concentration at or near the clinical Cmax and decreasing in half-log increments. If the clinical Cmax for an agent had not been determined, the highest concentration tested was 10 microM.
Cell Culture. All cells were maintained in an incubator at 37 degrees C and 5% CO2 with 95% humidity. The PDC lines were cultured according to standard operating procedures established by the NCI PDMR. All PDCs were thawed and cultured in Matrigel-coated flasks prepared with a working solution of 1X Ham's F-12 nutrient mix, without supplementation (Invitrogen, Waltham, MA, cat. 11765054), 100 U/mL penicillin-streptomycin (Invitrogen, cat. 15140122), and 2.5% Matrigel (Corning Inc., Corning, NY, cat. 354248) for the first three passages. The 362531-283-R-J2-PDC and 782815-120-R-J1-PDC lines were cultured in 6C/Colon 1B media, which includes advanced DMEM/F-12 (Thermo Fisher Scientific, cat. 12634028), 10 mM HEPES (Thermo Fisher Scientific, cat. 15630080), 1X GlutaMAX supplement (Thermo Fisher Scientific, cat. 35050061), 0.1 mg/mL primocin (InvivoGen, San Diego, CA, cat. ant-pm-2), 10% defined fetal bovine serum, heat inactivated (HyClone Laboratories Inc., Logan, UT, cat. SH30070.03HI), 50% L-WRN conditioned media (ATCC, cat. CRL-3276), 1.25 mM N-Acetyl-L-cysteine (Sigma-Aldrich, cat. A9165), 10 mM nicotinamide (Sigma-Aldrich, cat. N0636), 1X B-27 supplement (Thermo Fisher Scientific, cat. 17504044), 1X N-2 supplement (Thermo Fisher Scientific, cat. 17502048), 50 ng/mL human EGF (Thermo Fisher Scientific, cat. PHG0311), and 10 microM Y-27632 dihydrochloride (Tocris Bioscience, cat. 1254). The K12877-001-R-J1-PDC line was cultured in 6I media, which includes all 6C/Colon 1B media plus 10 ng/mL human FGF-10 (PeproTech, cat. 100-26), 1 ng/mL human FGF-2 (PeproTech, cat. 100-18B), 1 µM prostaglandin E2 (Tocris Bioscience, cat. 2296), […] hydrocortisone (Sigma-Aldrich, cat. H4001), and […] bovine insulin (Sigma-Aldrich, cat. I6634). The K86415-001-R-J1-PDC line was cultured in 6D media, which includes all 6C/Colon 1B media components minus the L-WRN conditioned media. The 485176-168-R4-J1-PDC was cultured in PANC media, which includes all 6C/Colon 1B media plus 100 ng/mL human FGF-10 (PeproTech, cat. 100-26), 500 nM SB-431542 (Selleckchem, cat. S1067), and 10 nM gastrin (Tocris Bioscience, cat. 3006). […]

[1] = second compound 0.0316 µM, first compound 0.0316 µM
[2] = second compound 0.0316 µM, first compound 0.1 µM
[3] = second compound 0.0316 µM, first compound 0.316 µM
[4] = second compound 0.0316 µM, first compound 1 µM
[5] = second compound 0.0316 µM, first compound 3.16 µM
[6] = second compound 0.0316 µM, first compound 10 µM
[7] = second compound 0.1 µM, first compound 0.0316 µM
[8] = second compound 0.1 µM, first compound 0.1 µM
[9] = second compound 0.1 µM, first compound 0.316 µM
[10] = second compound 0.1 µM, first compound 1 µM
[11] = second compound 0.1 µM, first compound 3.16 µM
[12] = second compound 0.1 µM, first compound 10 µM
[13] = second compound 0.316 µM, first compound 0.0316 µM
[14] = second compound 0.316 µM, first compound 0.1 µM
[15] = second compound 0.316 µM, first compound 0.316 µM
[16] = second compound 0.316 µM, first compound 1 µM
[17] = second compound 0.316 µM, first compound 3.16 µM
[18] = second compound 0.316 µM, first compound 10 µM
[19] = second compound 1 µM, first compound 0.0316 µM
[20] = second compound 1 µM, first compound 0.1 µM
[21] = second compound 1 µM, first compound 0.316 µM
[22] = second compound 1 µM, first compound 1 µM
[23] = second compound 1 µM, first compound 3.16 µM
[24] = second compound 1 µM, first compound 10 µM
[25] = second compound 3.16 µM, first compound 0.0316 µM
[26] = second compound 3.16 µM, first compound 0.1 µM
[27] = second compound 3.16 µM, first compound 0.316 µM
[28] = second compound 3.16 µM, first compound 1 µM
[29] = second compound 3.16 µM, first compound 3.16 µM
[30] = second compound 3.16 µM, first compound 10 µM
[31] = second compound 10 µM, first compound 0.0316 µM
[32] = second compound 10 µM, first compound 0.1 µM
[33] = second compound 10 µM, first compound 0.316 µM
[34] = second compound 10 µM, first compound 1 µM
[35] = second compound 10 µM, first compound 3.16 µM
[36] = second compound 10 µM, first compound 10 µM
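Note: spheroids exposed to agents for seven days before readout.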
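Throughout, for viability, T/C: luminescence viability as percent of DMSO vehicle control wells.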

CC(C)NCC(C(=O)N1CCN(c2ncnc3c2C(C)CC3O)CC1)c1ccc(Cl)cc1 (stereo unspecified) + C#Cc1c(F)ccc2cc(O)cc(-c3ncc4c(N5CC6CCC(C5)N6)nc(OCC56CCCN5CC(F)C6)nc4c3F)c12
> 10 µM: IC50 (second compound 0.0316 µM) | IC50 (second compound 0.1 µM) | IC50 (second compound 0.316 µM) | IC50 (second compound 1 µM) | IC50 (second compound 3.16 µM) | IC50 (second compound 10 µM)
inactive: viability, T/C [1] 133% | viability, T/C [2] 111% | viability, T/C [3] 88.9% | viability, T/C [4] 94.6% | viability, T/C [5] 84.1% | viability, T/C [6] 82.3% | viability, T/C [7] 88.5% | viability, T/C [8] 86.5% | viability, T/C [9] 76.9% | viability, T/C [10] 90.3% | viability, T/C [11] 83.5% | viability, T/C [12] 72.2% | viability, T/C [13] 104% | viability, T/C [14] 110% | viability, T/C [15] 92.8% | viability, T/C [16] 83% | viability, T/C [17] 85.9% | viability, T/C [18] 85.3% | viability, T/C [19] 105% | viability, T/C [20] 79.8% | viability, T/C [21] 89.2% | viability, T/C [22] 82.5% | viability, T/C [23] 63.7% | viability, T/C [24] 69.5% | viability, T/C [25] 98.5% | viability, T/C [26] 96.7% | viability, T/C [27] 81.4% | viability, T/C [28] 77.7% | viability, T/C [29] 92.1% | viability, T/C [30] 70.4% | viability, T/C [31] 83% | viability, T/C [32] 87.7% | viability, T/C [33] 88.9% | viability, T/C [34] 91.4% | viability, T/C [35] 86.4% | viability, T/C [36] 72.4%

CC(C)n1nc(-c2ccc3oc(N)nc3c2)c2c(N)ncnc21 + C#Cc1c(F)ccc2cc(O)cc(-c3ncc4c(N5CC6CCC(C5)N6)nc(OCC56CCCN5CC(F)C6)nc4c3F)c12
0.0783 µM: IC50 (second compound 3.16 µM)
0.0881 µM: IC50 (second compound 0.316 µM)
inactive: viability, T/C (second compound 0.0316 µM, first compound 0.000316 µM) 101% | viability, T/C (second compound 0.0316 µM, first compound 0.001 µM) 87.2% | viability, T/C (second compound 0.0316 µM, first compound 0.00316 µM) 105% | viability, T/C (second compound 0.0316 µM, first compound 0.01 µM) 77.5% | viability, T/C [1] 72.7% | viability, T/C [2] 56.9% | viability, T/C (second compound 0.1 µM, first compound 0.000316 µM) 115% | viability, T/C (second compound 0.1 µM, first compound 0.001 µM) 107% | viability, T/C (second compound 0.1 µM, first compound 0.00316 µM) 89% | viability, T/C (second compound 0.1 µM, first compound 0.01 µM) 77.7% | viability, T/C [7] 66.6% | viability, T/C [8] 50.2% | viability, T/C (second compound 0.316 µM, first compound 0.000316 µM) 99.8% | viability, T/C (second compound 0.316 µM, first compound 0.001 µM) 99.6% | viability, T/C (second compound 0.316 µM, first compound 0.00316 µM) 80.8% | viability, T/C (second compound 0.316 µM, first compound 0.01 µM) 71.1% | viability, T/C [13] 69.4% | viability, T/C [14] 45.3% | viability, T/C (second compound 1 µM, first compound 0.000316 µM) 104% | viability, T/C (second compound 1 µM, first compound 0.001 µM) 81.2% | viability, T/C (second compound 1 µM, first compound 0.00316 µM) 82.9% | viability, T/C (second compound 1 µM, first compound 0.01 µM) 66.4% | viability, T/C [19] 75.9% | viability, T/C [20] 46.8% | viability, T/C (second compound 3.16 µM, first compound 0.000316 µM) 87% | viability, T/C (second compound 3.16 µM, first compound 0.001 µM) 76% | viability, T/C (second compound 3.16 µM, first compound 0.00316 µM) 91.5% | viability, T/C (second compound 3.16 µM, first compound 0.01 µM) 81.1% | viability, T/C [25] 76.3% | viability, T/C [26] 42.8% | viability, T/C (second compound 10 µM, first compound 0.000316 µM) 108% | viability, T/C (second compound 10 µM, first compound 0.001 µM) 91.5% | viability, T/C (second compound 10 µM, first compound 0.00316 µM) 84.6% | viability, T/C (second compound 10 µM, first compound 0.01 µM) 72% | viability, T/C [31] 52.7% | viability, T/C [32] 60.7%
> 0.1 µM: IC50 (second compound 0.0316 µM) | IC50 (second compound 0.1 µM) | IC50 (second compound 1 µM) | IC50 (second compound 10 µM)

CC(Nc1ccc2c(c1)OCCn1cc(N3C(=O)OCC3C(F)F)nc1-2)C(N)=O (stereo unspecified) + C#Cc1c(F)ccc2cc(O)cc(-c3ncc4c(N5CC6CCC(C5)N6)nc(OCC56CCCN5CC(F)C6)nc4c3F)c12
inactive: viability, T/C [1] 109% | viability, T/C [2] 84.6% | viability, T/C [3] 88.8% | viability, T/C [4] 96% | viability, T/C [5] 90.2% | viability, T/C [6] 72.8% | viability, T/C [7] 101% | viability, T/C [8] 85.7% | viability, T/C [9] 93.1% | viability, T/C [10] 97.3% | viability, T/C [11] 91.1% | viability, T/C [12] 72.6% | viability, T/C [13] 131% | viability, T/C [14] 92.7% | viability, T/C [15] 78.2% | viability, T/C [16] 104% | viability, T/C [17] 74.7% | viability, T/C [18] 96.1% | viability, T/C [19] 95.7% | viability, T/C [20] 97.8% | viability, T/C [21] 98.7% | viability, T/C [22] 100% | viability, T/C [23] 88.5% | viability, T/C [24] 93.3% | viability, T/C [25] 90.5% | viability, T/C [26] 88.8% | viability, T/C [27] 88.3% | viability, T/C [28] 77.5% | viability, T/C [29] 76.6% | viability, T/C [30] 76.9% | viability, T/C [31] 102% | viability, T/C [32] 101% | viability, T/C [33] 97% | viability, T/C [34] 81.2% | viability, T/C [35] 90% | viability, T/C [36] 78.5%
> 10 µM: IC50 (second compound 0.0316 µM) | IC50 (second compound 0.1 µM) | IC50 (second compound 0.316 µM) | IC50 (second compound 1 µM) | IC50 (second compound 3.16 µM) | IC50 (second compound 10 µM)
